# Laboratory results taken from US7709482B2, “Polycyclic heteroaryl substituted triazoles useful as Axl inhibitors” (Rigel Pharmaceuticals, Inc., priority 2006, dated 2010).
# Molecular target: T1, Axl (Homo sapiens, UniProt P30530)
# T1 construct: endogenous in cells; host or cells: HeLa cells
# T1 sequence (P30530 26-894): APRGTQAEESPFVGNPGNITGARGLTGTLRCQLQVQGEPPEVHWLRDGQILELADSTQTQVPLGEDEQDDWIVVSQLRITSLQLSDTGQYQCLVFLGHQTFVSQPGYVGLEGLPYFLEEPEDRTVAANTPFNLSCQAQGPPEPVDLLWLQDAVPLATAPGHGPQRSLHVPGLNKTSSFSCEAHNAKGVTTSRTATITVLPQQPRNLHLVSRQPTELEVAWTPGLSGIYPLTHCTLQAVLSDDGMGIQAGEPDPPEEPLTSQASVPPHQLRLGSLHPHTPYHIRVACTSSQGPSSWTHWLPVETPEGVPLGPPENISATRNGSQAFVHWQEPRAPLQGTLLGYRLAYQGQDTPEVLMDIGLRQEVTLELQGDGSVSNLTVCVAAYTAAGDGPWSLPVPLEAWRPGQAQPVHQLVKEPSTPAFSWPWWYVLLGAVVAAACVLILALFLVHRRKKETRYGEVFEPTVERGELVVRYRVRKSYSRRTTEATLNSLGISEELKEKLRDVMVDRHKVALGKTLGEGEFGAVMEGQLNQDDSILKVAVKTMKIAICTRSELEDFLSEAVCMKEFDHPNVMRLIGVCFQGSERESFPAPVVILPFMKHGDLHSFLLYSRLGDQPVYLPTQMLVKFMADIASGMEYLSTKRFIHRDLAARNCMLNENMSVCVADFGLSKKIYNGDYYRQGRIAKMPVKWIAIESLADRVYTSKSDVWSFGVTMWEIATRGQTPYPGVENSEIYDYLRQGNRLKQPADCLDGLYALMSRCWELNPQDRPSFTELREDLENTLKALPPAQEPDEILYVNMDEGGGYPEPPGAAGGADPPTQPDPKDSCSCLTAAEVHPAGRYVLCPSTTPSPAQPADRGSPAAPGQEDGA
# Assay: Phospho-Akt In-Cell Western Assay (inhibition of Axl activity after Axl-antibody cross-linking)
# Assay type: cell-based
# Details: Hela cells, phospho-Akt chemiluminescence normalized to relative cell number; compounds of formula (Ia), Table 1; read-out: IC50
# Protocol: The compounds of the invention were tested in the following assay for their ability to inhibit Axl activity.
# Phospho-Akt In-Cell Western Assay
# • Cell culture plate: 96 well assay plate (Corning 3610), white, clear bottom, tissue-culture treated. • Cells: Hela cells. • Starvation medium: For Axl stimulation: 0.5% FCS (fetal calf serum) in DMEM, plus Axl/Fc (extracellular domain of AXL fused to immunoglobulin Fc region) (R&D, 154-AL) 500 ng/mL. • For EGF (epidermal growth factor) stimulation: 0.5% FCS in DMEM (Dulbecco's modified Eagles medium). • Poly-L-Lysine 0.01% solution (the working solution): […], dilute In PBS (phosphate buffered saline). • Axl antibody cross-linking: • 1st: Mouse anti-Axl (R&D, MAB154). • 2nd: Biotin-SP-conjugated AffiniPure goat anti-mouse IgG (H+ L) (Jackson ImmunoResearch #115-065-003). • Fixing buffer: 4% formaldehyde in PBS. • Wash buffer: 0.1% TritonX-100 in PBS. • Quenching buffer: 3% H2O2, 0.1% Azide in wash buffer, Azide and hydrogen peroxide (H2O2) are added fresh. • Blocking buffer: 5% BSA in TBST (tris buffered saline plus 0.1% Tween 20). • Primary antibody: Rabbit anti-human Phospho-Akt antibody (Cell Signaling 9271): 1×250 diluted in blocking buffer. • Secondary antibody: HRP (horse radish peroxidase)-conjugated Goat anti-Rabbit secondary, stock solution: Jackson ImmunoResearch (Goat anti-Rabbit HRP, #111-035-144) 1:1 diluted in glycerol, store at −20° C. The working solution: 1×2000 dilution of stock in blocking buffer. • Chemiluminescent working solution (Pierce, 37030): SuperSignal ELISA (enzyme linked immunosorbant assay) Pico Chemiluminescent substrate. • Crystal Violet solution: Stock: 2.5% Crystal violet in methanol, filtered and kept at ambient temperature. The working solution: dilute the stock 1:20 with PBS immediately before use. • 10% SDS: working solution: 5% SDS (sodium dodecylsulfate), diluted in PBS Methods: Day 1:
# A 96 well TC (tissue culture treated) plate was coated with 10 μg/mL poly-L-Lysine at 37° C. for 30 min, washed twice with PBS, and air-dried for 5 minutes before cells were added. Hela cells were seeded at 10,000 cells/well and the cells were starved in 100 μL starvation medium containing Axl/Fc for 24 hrs.
# The cells were pre-treated with test compounds by adding 100 μL of 2× test compound to the starvation medium on the cells. The cells were incubated at 37° C. for 1 hr before stimulation.
# The resulting mix was warmed to 37° C. 50 μL of 5×Axl 1st/2nd of antibody cluster was added to the cells and the cells were incubated at 37° C. for 5 min.
# After 5 minutes stimulation, the plate was flicked to remove medium and the plate was tapped onto paper towels. Formaldehyde (4.0% in PBS, 100 μL) was added to fix the cells and the cells were incubated at ambient temperature for 20 min without shaking.
# The cells were washed with a plate washer buffer to remove the formaldehyde solution. The plate was flicked to removed excess wash buffer and tapped onto paper towels. Quenching buffer (100 μL) was added to each well and the cells were incubated at ambient temperature for 20 minutes without shaking.
# The cells were washed with a plate washer buffer to remove the quenching buffer. Blocking buffer (100 μL) was added and the cells were incubated at ambient temperature for at least an hour with gentle shaking.
# The cells were washed with a plate washer buffer and diluted primary antibody (50 μL) was added to each well (blocking buffer was added to the negative control wells instead). The plates were incubated overnight at 4° C. with gentle shaking.
# The wash buffer was removed, diluted secondary antibody (100 μL) was added, and the cells were incubated at ambient temperature for 1 hour with gentle shaking. During the incubation, the chemiluminescent reagent was brought to ambient temperature.
# The secondary antibody was removed by washing the cells 1× with wash buffer, 1× with PBS by plate washer.
row,IC50 [µM],SMILES
1,< 1,"CN1CCc2cc(-n3nc(Nc4ccc(OCCN5CCCC5)c(F)c4)nc3N)nnc2-c2ccccc21 [Compound 42, 1-(7-methyl-6,7-dihydro-5H-benzo[2,3]azepino[4,5-c]pyridazin-3-yl)-N^3-(3-fluoro-4-(2-(pyrrolidin-1-yl)ethoxy)phenyl)-1H-1,2,4-triazole-3,5-diamine]"
2,< 1,"Nc1nc(Nc2ccc(N3CCN(C4CCCC4)CC3)c(F)c2)nn1-c1cc2c(nn1)-c1ccccc1CCC2 [Compound 107, 1-(6,7-dihydro-5H-benzo[6,7]cyclohepta[1,2-c]pyridazin-3-yl)-N^3-(3-fluoro-4-(4-cyclopentylpiperazinyl)-phenyl)-1H-1,2,4-triazole-3,5-diamine]"
3,< 1,"Nc1nc(Nc2ccc(N3CCC(N4CCCC4)CC3)c(F)c2)nn1-c1cc2c(nn1)-c1ccccc1OCC2 [Compound 117, 1-(6,7-dihydro-5H-benzo[2,3]oxepino[4,5-c]pyridazin-3-yl)-N^3-(3-fluoro-4-(4-pyrrolidin-1-ylpiperidinyl)phenyl)-1H-1,2,4-triazole-3,5-diamine]"
4,< 1,"CN1CCC(c2ccc(Nc3nc(N)n(-c4cc5c(nn4)-c4ccccc4CCC5)n3)cc2)CC1 [Compound 99, 1-(6,7-dihydro-5H-benzo[6,7]cyclohepta[1,2-c]pyridazin-3-yl)-N^3-(4-(methylpiperidin-4-yl)phenyl)-1H-1,2,4-triazole-3,5-diamine]"
5,< 1,"CN1CCN(c2ccc(Nc3nc(N)n(-c4cc5c(nn4)-c4ccccc4CCC5)n3)cc2)CC1 [Compound 34, 1-(6,7-dihydro-5H-benzo[6,7]cyclohepta[1,2-c]pyridazin-3-yl)-N^3-(4-(4-methylpiperazin-1-yl)phenyl)-1H-1,2,4-triazole-3,5-diamine]"
6,1 to 10,"CC1(C)CCCC(C)(C)N1CCOc1ccc(Nc2nc(N)n(-c3cc4c(nn3)-c3ccccc3CCC4)n2)cc1 [Compound 14, 1-(6,7-dihydro-5H-benzo[6,7]cyclohepta[1,2-c]pyridazin-3-yl)-N^3-(4-(2,2,6,6-tetramethylpiperidin-1-yl)ethoxyphenyl)-1H-1,2,4-triazole-3,5-diamine]"
7,< 1,"Nc1nc(Nc2ccc(N3CCN([C@H]4CC5CCC4C5)CC3)cc2)nn1-c1ncc2c(n1)-c1ccccc1CCC2 (stereo partly drawn) [Compound 46, 1-(6,7-dihydro-5H-benzo[6,7]cyclohepta[1,2-d]pyrimidin-2-yl)-N^3-(4-(4-(2S)-bicyclo[2.2.1]heptan-2-yl)-piperazinylphenyl)-1H-1,2,4-triazole-3,5-diamine]"
8,> 20,"N#Cc1cccc(-c2ccc(Nc3nc(N)n(-c4cc5c(nn4)-c4ccccc4CCC5)n3)cn2)c1 [Compound 96, 1-(6,7-dihydro-5H-benzo[6,7]cyclohepta[1,2-c]pyridazin-3-yl)-N^3-(6-(3-cyanophenyl)pyridine-3-yl)-1H-1,2,4-triazole-3,5-diamine]"

# Same assay, conditions: Hela cells, phospho-Akt chemiluminescence normalized to relative cell number; compounds of formula (Ib), Table 2; read-out: IC50
row,IC50 [µM],SMILES
1,> 20,"CN1CCN(c2ccc(Nc3nc(N)nn3-c3cc4c(nn3)-c3ccccc3N(C)CC4)cc2)CC1 [Compound 162, 1-(7-methyl-6,7-dihydro-5H-benzo[2,3]azepino[4,5-c]pyridazin-3-yl)-N^5-(4-(N-methylpiperazin-1-yl)phenyl)-1H-1,2,4-triazole-3,5-diamine]"

# Same assay, conditions: inhibition of Axl activity; Table 1, compounds of formula (Ia); read-out: IC50
row,IC50 [µM],SMILES
1,< 1,"Nc1nc(Nc2ccc(C=CCN3CCOCC3)cc2)nn1-c1cc2c(nn1)-c1ccccc1CCC2 [Compound 207, 1-(6,7-dihydro-5H-benzo[6,7]cyclohepta[1,2-c]pyridazin-3-yl)-N^3-(4-(morpholin-4-ylprop-1-enyl)phenyl)-1H-1,2,4-triazole-3,5-diamine]"
2,< 1,"Nc1nc(Nc2ccc(C3CCN(CC4CC4)CC3)cc2)nn1-c1cc2c(nn1)-c1ccccc1CCC2 [Compound 212, 1-(6,7-dihydro-5H-benzo[6,7]cyclohepta[1,2-c]pyridazin-3-yl)-N^3-(4-(1-cyclopropylmethylpiperidin-4-yl)phenyl)-1H-1,2,4-triazole-3,5-diamine]"
3,< 1,"Nc1nc(Nc2ccc3c(c2)CCC(N2CC[C@H](O)C2)CC3)nn1-c1cc2c(nn1)-c1ccccc1CCC2 (stereo partly drawn) [Compound 221, 1-(6,7-dihydro-5H-benzo[6,7]cyclohepta[1,2-c]pyridazin-3-yl)-N^3-(7-(3-(S)-hydroxypyrrolidin-1-yl)-6,7,8,9-tetrahydro-5H-benzo[7]annulene-2-yl)-1H-1,2,4-triazole-3,5-diamine]"
4,> 20,"Nc1nc(Nc2ccc(I)cc2)nn1-c1cc2c(nn1)-c1ccccc1CCC2 [Compound 156, 1-(6,7-dihydro-5H-benzo[6,7]cyclohepta[1,2-c]pyridazin-3-yl)-N^3-(4-iodophenyl)-1H-1,2,4-triazole-3,5-diamine]"
5,< 1,"Nc1nc(Nc2ccc3c(c2)CCC(NC2CC2)CC3)nn1-c1cc2c(nn1)-c1ccccc1CCC2 (centres unmarked) [Compound 225, 1-(6,7-dihydro-5H-benzo[6,7]cyclohepta[1,2-c]pyridazin-3-yl)-N^3-(7-cyclopropylamino-6,7,8,9-tetrahydro-5H-benzo[7]annulene-2-yl)-1H-1,2,4-triazole-3,5-diamine]"
6,< 1,"Nc1nc(Nc2ccc(N3CCC(N4CCCC4)C3)c(F)c2)nn1-c1cc2c(nn1)-c1ccccc1CCC2 (centres unmarked) [Compound 132, 1-(6,7-dihydro-5H-benzo[6,7]cyclohepta[1,2-c]pyridazin-3-yl)-N^3-(3-fluoro-(4-(3-pyrrolidin-1-yl)pyrrolidin-1-yl)phenyl)-1H-1,2,4-triazole-3,5-diamine]"
7,< 1,"COC(=O)[C@@H]1CCCN1C1CCc2ccc(Nc3nc(N)n(-c4cc5c(nn4)-c4ccccc4CCC5)n3)cc2CC1 (stereo partly drawn) [Compound 194, 1-(6,7-dihydro-5H-benzo[6,7]cyclohepta[1,2-c]pyridazin-3-yl)-N^3-((7-(2-(S)-methyloxycarbonyl)pyrrolidin-1-yl)-6,7,8,9-tetrahydro-5H-benzo[7]annulene-2-yl)-1H-1,2,4-triazole-3,5-diamine]"
8,< 1,"Nc1nc(Nc2ccc(N3CCN(CC4CC4)CC3)c(F)c2)nn1-c1cc2c(nn1)-c1ccccc1CCC2 [Compound 214, 1-(6,7-dihydro-5H-benzo[6,7]cyclohepta[1,2-c]pyridazin-3-yl)-N^3-(3-fluoro-4-(4-cyclopropylmethylpiperazin-1-yl)phenyl)-1H-1,2,4-triazole-3,5-diamine]"
